The source of these data is ChEMBL document CHEMBL5728747, “Benzimidazoles and indoles as taro inhibitors” (2021).

SMILES strings stand for the structures. “And” between values parts separate entries of the source, which are not always exact repeats. Equal values may be shown once.

The nature of the experiment: TarO Biochemical Enzymatic Assay: The TarO biochemical enzymatic assay is a liquid chromatography-mass spectroscopy (LC-MS) based end point assay that measures C55-P-P-GlcNAc (LIPID III) production. The TarO biochemical enzymatic assay was performed in a 384-well microtiter plate (Labcyte) with a reaction volume of 20 μl. The reaction mix contained 0.1 μgs/μl of TarO membrane preparation derived from MRSA COL (lysostaphin/lysozyme treated, centrifuged at 40K rpm, and re-suspended in 50 mM Tris pH 7.5, 10 mM MgCl2), 1500 μM UDP-GlcNAc, ×75 μM C55-P substrates in 83 mM Tris pH 8.0, 6.7 mM MgCl2, 6 mM CHAPS, and 8.3% DMSO buffer. The enzyme reactions were quenched by extraction in 40 μl of 1-pentanol containing 0.04 μM 15C C55-PP-GlcNAc, which was used as an internal standard. A 10 μl volume of the quenched reaction mixture (pH≈3) from each well was injected onto a reversed-phase column (C4, 5 μm, 2.1×50 mm, Thermo Scientific Biobacis-4) and eluted using a NH4Ac/H2O/MeOH gradient (solvent A: 10 mM NH4Ac in water, pH 5.6; solvent B: NH4Ac (1 M)-Isopropanol (1:90, v/v, pH 5.6). The HPLC conditions were as follows: 15% solvent B for 15 seconds followed by a gradient to 90% solvent B in 90 seconds; then solvent B was kept at 95% for 10 seconds followed by a gradient to 8% solvent B in 0.1 minute. The column was then equilibrated at 15% B for 1 minute before the next injection. The flow rate was kept constant at 600 μl/minute. Mass spectrometric detection was carried out in the negative-ion mode using selected reaction monitoring (SRM). Typical mass spectrometric conditions were as follows: heated capillary temperature, 210° C.; spray voltage, 2500 V; desolvation gas (N2), 40 l/h; auxiliary gas (N2), 35 l/h. Selected ion current (SIC) chromatograms of C55-PP-GlcNAc and internal standard 15C C55-PP-GlcNAc were plotted and integrated using LCQuan incorporated in Xcalibur software (ThermoFinnigan). The linearity of C55-PP-GlcNAc concentration versus mass spectrometric signal (AC55-PP-GlcNAc/A15C-C55-PP-GlcNAc) was determined with purified C55-PP-GlcNAc. The IC50 values were calculated using the nonlinear regression analysis (sigmoidal dose response fit allowing for a variable slope) of percent inhibition data with minimum and maximum values set to 0 and 100 percent.
As for `CCN(C(=O)CCn1c(-c2ccc(C(=O)OC)cc2)nc2ccccc21)C1CCCCC1`, the IC50 was 0.13 µM. On to `CCN(C(=O)CCn1c2cc(CO)ccc2nc1[C@H]1CC[C@H](CC)CC1)C1CCCCC1`, for which the IC50 was 0.12 µM. Consider `CCN(C(=O)CCn1c2ccc(F)cc2nc1[C@H]1CC[C@H](CC)CC1)C1CCCCC1`, for which the IC50 is 0.04 µM.

Take `CCN(C(=O)CCn1c(C2CCCN(C(=O)OC(C)(C)C)C2)nc2cc(F)ccc21)C1CCCCC1` (centres undefined): the IC50 is 0.06 µM and 0.12 µM. `CCN(C(=O)CCn1c2cccc(F)c2nc1[C@H]1CC[C@H](CC)CC1)C1CCCCC1`: the IC50 was 0.03 µM. As to `CCN(C(=O)CCn1c(N2CCC(C)CC2)nc2ccccc21)C1CCCCC1`, the IC50 is 0.21 µM. Regarding `CCN(C(=O)CCn1c2ccc(Br)cc2nc1[C@H]1CC[C@H](CC)CC1)C1CCCCC1`, the IC50 was 0.01 µM. To `CCN(C(=O)CCn1c2c(F)cccc2nc1[C@H]1CC[C@H](CC)CC1)C1CCCCC1` belongs 0.04 µM; to `CCN(C(=O)CCn1c2cc(-c3cnn(C)c3)ccc2nc1[C@H]1CC[C@H](CC)CC1)C1CCCCC1`, 0.05 µM; to `CCN(C(=O)CCn1c2cc(Br)ccc2nc1[C@H]1CC[C@H](CC)CC1)C1CCCCC1`, 0.03 µM. For the molecule `CCN(C(=O)CCn1c(-c2ccc(OCC(F)(F)F)cc2)nc2ccccc21)C1CCCCC1`, the IC50 was 0.04 µM. For `CCN(C(=O)CCn1c(C2CCCCC2)nc2ccccc21)C1CCCCC1`, the IC50 is 0.07 µM. For `CCN(C(=O)CCn1c2cc(F)ccc2nc1[C@H]1CC[C@H](CC)CC1)C1CCCCC1`, the IC50 is 0.02 µM. In the case of `CCOC(=O)N1CCCC(c2nc3cc(F)ccc3n2CCC(=O)N(CC)C2CCCCC2)C1` (centres undefined), the IC50 was 0.11 µM and 0.29 µM.

`CN(C(=O)CCn1c(C2CCCCC2)nc2ccccc21)C1CCCCC1`: the half-maximal inhibitory concentration (IC50) was 0.28 µM.

For the molecule `CCN(C(=O)CCn1c(N2CCC(C(C)(C)C)CC2)nc2ccccc21)C1CCCCC1`, the IC50 is 0.01 µM.

Consider `CCN(C(=O)CCn1c(-c2ccc(-n3ccnn3)cc2)nc2ccccc21)C1CCCCC1`, for which the IC50 was 3.77 µM. As to `CC1(C)[C@@H]2CC[C@@]1(C)[C@H](NC(=O)CCn1c(C3CCCCC3)nc3ccccc31)C2`, the IC50 was 0.2 µM. In the case of `CCN(C(=O)CCn1c2cccc(C[C@H]3CCOC3)c2nc1[C@H]1CC[C@H](CC)CC1)C1CCCCC1`, the IC50 was 0.52 µM. As for `CCN(C(=O)CCn1c(N2CCC(F)(F)CC2)nc2ccccc21)C1CCCCC1`, the IC50 was 0.22 µM. To `CCN(C(=O)CCn1c2ccc(OC)cc2nc1[C@H]1CC[C@H](CC)CC1)C1CCCCC1` belongs 0.15 µM. As to `CCN(C(=O)CCn1c2ncccc2nc1[C@H]1CC[C@H](CC)CC1)C1CCCCC1`, the 50% inhibitory concentration (IC50) is 0.3 µM. With `CCN(C(=O)CCn1c2cccc(N3CCOCC3)c2nc1[C@H]1CC[C@H](CC)CC1)C1CCCCC1` the figure was 3.44 µM; with `CCc1nsc(N2CCCC(c3nc4ccccc4n3CCC(=O)N(CC)C3CCCCC3)C2)n1` (centres undefined), 0.08 µM; with `CCCOC(=O)N1CCCC(c2nc3ccccc3n2CCC(=O)N(CC)C2CCCCC2)C1` (centres undefined), 0.15 µM. Take `CCN(C(=O)CCn1c2cc(C[C@H]3CCOC3)ccc2nc1[C@H]1CC[C@H](CC)CC1)C1CCCCC1`: the IC50 is 0.38 µM. Regarding `CCN(C(=O)CCn1c2ccncc2nc1[C@H]1CC[C@H](CC)CC1)C1CCCCC1`, the IC50 is 0.15 µM. With `CCN(C(=O)CCn1c2cc(CN)ccc2nc1[C@H]1CC[C@H](CC)CC1)C1CCCCC1`, the IC50 was 7.32 µM. Consider `CC(C)(C)OC(=O)NCC1CCC(c2nc3ccccc3n2CCC(=O)NC2C[C@H]3CC[C@]2(C)C3(C)C)CC1` (some centres undefined), for which the IC50 is 1.35 µM. Regarding `CCOc1ccc(-c2nc3ccccc3n2CCC(=O)N(CC)C2CCCCC2)cn1`, the IC50 is 0.24 µM. Consider `CCN(C(=O)CCn1c(C2CCCN(C(=O)OC(C)C)C2)nc2ccccc21)C1CCCCC1` (centres undefined), for which the IC50 is 0.26 µM. With `CCCCOC(=O)N1CCCC(c2nc3ccccc3n2CCC(=O)N(CC)C2CCCCC2)C1` (centres undefined), the concentration for half-maximal inhibition (IC50) is 0.07 µM. For `CCOC(=O)N1CCCC(c2nc3ccc(F)cc3n2CCC(=O)N(CC)C2CCCCC2)C1` (centres undefined), the IC50 is 1.09 µM. `CCN(C(=O)CCn1c2cc(C#N)ccc2nc1[C@H]1CC[C@H](CC)CC1)C1CCCCC1`: the IC50 was 0.79 µM. To `CCN(C(=O)CCn1c(CN2CCC(C(C)(C)C)CC2)nc2ccccc21)C1CCCCC1` belongs 0.1 µM; to `CCN(C(=O)CCn1c(C2CCC(C)N(c3cccc(OC)n3)C2)nc2ccccc21)C1CCCCC1` (centres undefined), 0.02 µM; to `CC1CCN(C(=O)CCn2c(C3CCCCC3)nc3ccccc32)CC1`, 2.34 µM.

Turning to `CCC1CCN(Cc2nc3cc(C)ccc3n2CCC(=O)N(CC)C2CCCCC2)CC1`, the IC50 was 1.05 µM. On to `CCC1CCN(Cc2nc3ccccc3n2CCC(=O)N(CC)C2CCCCC2)CC1`, for which the IC50 was 0.21 µM. For `CCN(C(=O)CCn1c(C2CCCN(c3nccc(OC)n3)C2)nc2ccccc21)C1CCCCC1` (centres undefined), the concentration for half-maximal inhibition (IC50) is 0.08 µM. To `CCN(C(=O)CCn1c2ccc(C#N)cc2nc1[C@H]1CC[C@H](CC)CC1)C1CCCCC1` belongs 0.42 µM; to `CCN(C(=O)CCn1c2cnccc2nc1[C@H]1CC[C@H](CC)CC1)C1CCCCC1`, 0.84 µM; to `CCN(C(=O)CCn1c(C2CCC(C)N(c3nccc(OC)n3)C2)nc2ccccc21)C1CCCCC1` (centres undefined), 0.14 µM. For the molecule `CCN(C(=O)CCn1c2cc(CN3CC(F)(F)C3)ccc2nc1[C@H]1CC[C@H](CC)CC1)C1CCCCC1`, the IC50 was 1.77 µM. `CCN(C(=O)CCn1c2ccc(C(F)(F)F)cc2nc1[C@H]1CC[C@H](CC)CC1)C1CCCCC1`: the IC50 was 0.01 µM.

For `CCN(C(=O)CCn1c2cccc(C(F)F)c2nc1[C@H]1CC[C@H](C)CC1)C1CCCCC1`, the IC50 is 0.36 µM. For the molecule `CCN(C(=O)CCn1c(C2CCCN(c3cccc(OC)n3)C2)nc2ccccc21)C1CCCCC1` (centres undefined), the IC50 is 0.01 µM. As for `CCN(C(=O)CCn1c(C2CCN(C(=O)OC(C)(C)C)C2)nc2cc(F)ccc21)C1CCCCC1` (centres undefined), the IC50 is 0.4 µM. In the case of `CCN(C(=O)CCn1c(N2CCC(C(F)F)CC2)nc2ccccc21)C1CCCCC1`, the IC50 was 0.17 µM. In the case of `CCN(C(=O)CCn1c2cc(CN3CCN(CC(F)(F)F)CC3)ccc2nc1[C@H]1CC[C@H](CC)CC1)C1CCCCC1`, the IC50 is 1.48 µM. As to `CCN(C(=O)CCn1c2cccnc2nc1[C@H]1CC[C@H](CC)CC1)C1CCCCC1`, the concentration for half-maximal inhibition (IC50) is 0.66 µM. With `CCN(C(=O)CCn1c2ccc(CO)cc2nc1[C@H]1CC[C@H](CC)CC1)C1CCCCC1` the figure was 0.77 µM. To `CCCOC(=O)N1CC(c2nc3ccccc3n2CCC(=O)N(CC)C2CCCCC2)CCC1C` (centres undefined) belongs 0.11 µM; to `CCN(C(=O)CCn1c(C2CCCN(c3ccccn3)C2)nc2ccccc21)C1CCCCC1` (centres undefined), 0.09 µM; to `CCN(C(=O)CCn1c(N2CCC[C@H](NC(=O)OC(C)(C)C)C2)nc2ccccc21)C1CCCCC1`, 7.99 µM. In the case of `CC(C)(C)OC(=O)N1CCC(c2nc3ccccc3n2CCC(=O)NC2C[C@H]3CC[C@]2(C)C3(C)C)C1` (some centres undefined), the IC50 is 3.4 µM.

As for `CCN(C(=O)CCn1c2ccc(C3CC3)cc2nc1[C@H]1CC[C@H](CC)CC1)C1CCCCC1`, the IC50 is 0.13 µM. As to `CCN(C(=O)CCn1c(C2CCCN(c3nccc(C)n3)C2)nc2ccccc21)C1CCCCC1` (centres undefined), the IC50 was 0.23 µM.

For the molecule `CC1(C)[C@@H]2CC[C@@]1(C)[C@H](NC(=O)CCn1c3ccccc3nc1[C@H]1CC[C@@H](C(C)(C)C)CC1)C2`, the IC50 is 0.06 µM.
